US5969017A, “Methods of treating or preventing cardiac arrhythmia” (Merck & Co., Inc., priority 1997, dated 1999)

Assays:
Type in all cases: cell-based
IK1 = assay: Voltage clamp block of IK1 in guinea pig ventricular myocytes; conditions: 3 μM; guinea pig ventricle
Protocol: (§1) D. Measurement of IKs IKr and IK1 in Guinea Pig Ventricular Myocytes.
(§2) Guinea pig ventricular myocytes were isolated using a modification of the procedure described by Mitra et al., Am. J. Physiol. 249:H1056-60 (1985). Excised hearts were perfused through the aorta (retrograde fashion) at a rate of 10 ml/min with oxygenated, warmed (37° C.) solutions described below. The heart was initially perfused for 7 minutes with a Tyrode's solution containing, in mM: 132 NaCl, 4 KCl, 1.2 MgCl2, 10 HEPES, 5 glucose, pH=7.2. The heart was then perfused with the same nominally Ca^2+ -free solution containing 150 units/ml Type II collagenase (Worthington) and 0.5 units/ml Type XIV protease (Sigma) for 8 minutes. This perfusate was followed by a Tyrode's solution contianing 0.2 mM CaCl2 (without enzymes) for 5 minutes. […]
(§3) The suction microelectrode technique described by Giles, W. R. and Shibata, E. F., "Voltage clamp of bull-frog cardiac pacemaker cells: a quantitative analysis of potassium currents", J. Physiol. […]
(§4) To record K^+ currents, the cells were bathed in a Ca^2+ -free Tyrode's solution containing 0.4 mM nisoldipine. […] Data was analyzed as % block from control membrane currents.
(§5) Nisoldipine was prepared as a 4 mM stock solution in polyethylne glycol 200. […] At the final concentrations used, neither polyethylene glycol 200 nor dimethyl sulfoxide had any effect on any of the measured membrane currents. […]

IKr = molecular target: T1, IKr (Cavia porcellus, UniProt O08703); assay: Voltage clamp block of IKr in guinea pig ventricular myocytes; conditions: guinea pig ventricle
T1 construct: Guinea pig ventricular myocytes were isolated; endogenous in cells; host or cells: isolated guinea pig ventricular myocytes
T1 sequence (O08703 1-1294): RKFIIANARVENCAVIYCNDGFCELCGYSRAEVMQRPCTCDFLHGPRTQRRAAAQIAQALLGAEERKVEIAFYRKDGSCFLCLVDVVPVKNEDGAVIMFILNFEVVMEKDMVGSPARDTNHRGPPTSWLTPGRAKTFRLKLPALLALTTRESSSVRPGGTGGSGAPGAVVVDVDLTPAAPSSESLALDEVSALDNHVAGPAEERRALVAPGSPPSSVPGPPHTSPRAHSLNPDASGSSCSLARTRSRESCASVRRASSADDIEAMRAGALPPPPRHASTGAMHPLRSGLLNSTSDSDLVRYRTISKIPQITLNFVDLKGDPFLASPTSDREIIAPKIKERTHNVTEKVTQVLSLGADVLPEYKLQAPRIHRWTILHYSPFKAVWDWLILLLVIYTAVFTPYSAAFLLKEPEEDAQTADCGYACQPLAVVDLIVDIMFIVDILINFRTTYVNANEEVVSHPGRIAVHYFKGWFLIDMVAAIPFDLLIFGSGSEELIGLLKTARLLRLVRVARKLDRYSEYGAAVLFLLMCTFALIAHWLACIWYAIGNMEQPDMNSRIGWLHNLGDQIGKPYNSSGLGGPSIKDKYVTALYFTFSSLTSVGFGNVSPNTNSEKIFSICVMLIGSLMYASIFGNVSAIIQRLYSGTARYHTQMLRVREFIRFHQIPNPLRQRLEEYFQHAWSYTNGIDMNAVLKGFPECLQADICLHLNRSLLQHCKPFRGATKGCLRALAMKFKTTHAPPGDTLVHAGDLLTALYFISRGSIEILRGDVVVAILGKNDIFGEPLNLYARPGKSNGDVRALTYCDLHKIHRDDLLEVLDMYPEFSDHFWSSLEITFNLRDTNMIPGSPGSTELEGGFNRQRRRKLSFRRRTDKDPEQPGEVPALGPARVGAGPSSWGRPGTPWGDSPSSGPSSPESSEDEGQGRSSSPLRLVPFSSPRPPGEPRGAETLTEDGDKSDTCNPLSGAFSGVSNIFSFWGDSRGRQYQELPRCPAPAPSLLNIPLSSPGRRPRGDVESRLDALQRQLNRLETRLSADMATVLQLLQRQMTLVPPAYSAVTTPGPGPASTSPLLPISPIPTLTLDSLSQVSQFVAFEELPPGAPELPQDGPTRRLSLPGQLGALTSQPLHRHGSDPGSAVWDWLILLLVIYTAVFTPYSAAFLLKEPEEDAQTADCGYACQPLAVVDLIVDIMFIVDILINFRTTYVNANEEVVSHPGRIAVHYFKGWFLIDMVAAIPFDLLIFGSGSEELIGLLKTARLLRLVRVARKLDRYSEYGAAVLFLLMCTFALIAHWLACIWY
Protocol: as §1, §2, §3, §4, §5

IKs = molecular target: T2, IKs (Cavia porcellus, UniProt O70344); assay: Voltage clamp block of IKs in guinea pig ventricular myocytes; conditions: guinea pig ventricle
T2 construct: Guinea pig ventricular myocytes were isolated; endogenous in cells; host or cells: isolated guinea pig ventricular myocytes
Protocol: as §1, §2, §3, §4, §5

T2 sequence (O70344 whole entry): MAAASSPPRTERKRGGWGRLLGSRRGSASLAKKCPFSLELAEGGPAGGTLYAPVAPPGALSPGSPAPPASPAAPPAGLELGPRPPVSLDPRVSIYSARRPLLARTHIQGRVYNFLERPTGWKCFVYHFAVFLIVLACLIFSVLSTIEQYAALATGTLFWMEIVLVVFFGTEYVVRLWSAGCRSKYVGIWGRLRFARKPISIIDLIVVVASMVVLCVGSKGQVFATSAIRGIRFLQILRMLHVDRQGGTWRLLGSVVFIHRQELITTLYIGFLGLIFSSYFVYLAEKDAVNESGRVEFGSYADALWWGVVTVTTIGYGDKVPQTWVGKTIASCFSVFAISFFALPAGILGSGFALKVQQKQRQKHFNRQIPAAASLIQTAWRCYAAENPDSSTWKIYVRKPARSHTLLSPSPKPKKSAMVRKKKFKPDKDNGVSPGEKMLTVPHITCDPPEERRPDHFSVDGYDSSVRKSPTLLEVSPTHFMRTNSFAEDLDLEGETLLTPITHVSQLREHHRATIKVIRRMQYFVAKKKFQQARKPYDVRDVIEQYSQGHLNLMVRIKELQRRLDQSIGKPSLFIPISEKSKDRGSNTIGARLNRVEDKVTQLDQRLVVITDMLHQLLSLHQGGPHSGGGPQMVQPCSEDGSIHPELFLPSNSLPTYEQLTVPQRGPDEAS
T2 sequence (Q60409 whole entry partner): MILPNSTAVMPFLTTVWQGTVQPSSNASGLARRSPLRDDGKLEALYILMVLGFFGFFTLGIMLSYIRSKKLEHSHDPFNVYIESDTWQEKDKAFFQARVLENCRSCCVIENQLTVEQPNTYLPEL

inhibition at 3 µM (IKs): 0%
SMILES: COc1ccc(-n2nc(Sc3ccc(Cl)cc3)c(C)c(C#N)c2=O)cc1 [C, 6-(4-Chlorophenylthio)-2-(4-methoxyphenyl)-5-methyl-3-oxo-2,3-dihydropyridazine-4-carbonitrile]
% Block IK1 (IK1): 0%
inhibition at 3 µM (IKr): 8.4%
